Laboratory results: PMC5966835 (Antiviral research, 2018)
Where two headings read alike, the source gives them in different places.

What was measured:
DENV NS5 = DENV NS5 (Dengue virus type 2, UniProt P29990); experiment: GTP-binding inhibition of flavivirus NS5 capping enzyme
CHIKV nsP1 [1] = molecular target: T1, CHIKV nsP1 (Chikungunya virus, UniProt Q8JUX6); experiment: Guanylation inhibition; assay type: biochemical; settings: 200-3.1 µM, 1 hour at 37°C, n=3
T1 sequence (Q8JUX6 1-535 limits assumed): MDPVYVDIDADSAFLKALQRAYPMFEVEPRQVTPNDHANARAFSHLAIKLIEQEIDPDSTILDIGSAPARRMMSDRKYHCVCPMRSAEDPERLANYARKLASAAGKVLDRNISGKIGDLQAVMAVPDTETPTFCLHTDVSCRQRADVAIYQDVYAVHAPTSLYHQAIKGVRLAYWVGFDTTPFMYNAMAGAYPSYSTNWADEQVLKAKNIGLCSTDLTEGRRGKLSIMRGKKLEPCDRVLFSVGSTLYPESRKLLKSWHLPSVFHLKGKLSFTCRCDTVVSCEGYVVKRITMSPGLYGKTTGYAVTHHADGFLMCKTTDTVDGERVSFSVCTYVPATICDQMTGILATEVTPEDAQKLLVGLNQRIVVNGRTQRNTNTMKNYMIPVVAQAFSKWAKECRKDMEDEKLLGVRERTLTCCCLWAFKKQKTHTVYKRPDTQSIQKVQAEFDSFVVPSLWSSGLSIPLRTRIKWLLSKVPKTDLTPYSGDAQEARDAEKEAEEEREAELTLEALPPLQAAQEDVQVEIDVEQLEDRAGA

CHIKV nsP1 [2] = molecular target: T1, CHIKV nsP1; experiment: Fluorescence polarization GTP-competition assay; assay type: binding; settings: for more active against CHIKV nsP1 than Dengue NS5 (selectivity): Ki CHIKV nsP1 vs DENV NS5
Sindbis virus = experiment: Live virus testing, Sindbis virus in BHK cells, plaque assay; assay type: cell-based, Sindbis virus (TE/3'2J); settings: for Sindbis virus replication in vitro: BHK cells, MOI 0.1, 48 hours
[3] = system: human adenosine-triphosphategated P2X7 receptor; settings: ref Fischer et al., 2014; cited from earlier work
CHIKV (strain OPY1) = experiment: Live virus testing, CHIKV in BHK cells, plaque assay; assay type: cell-based, Chikungunya virus; settings: for CHIKV replication in BHK cells: MOI 0.1, 48 hours; for EC50: Chikungunya virus, BHK, read-out: BHK EC50
CHIKV = experiment: Live virus testing, CHIKV in Huh 7 cells, plaque assay; assay type: cell-based; settings: Chikungunya virus, read-out: Huh 7 EC50
Cytotoxicity assay [4] = experiment: Cytotoxicity assay
Cytotoxicity assay [5] = settings: human
[6] = cited from earlier work

Chain of DENV NS5 (P29990 2492-2758 limits assumed): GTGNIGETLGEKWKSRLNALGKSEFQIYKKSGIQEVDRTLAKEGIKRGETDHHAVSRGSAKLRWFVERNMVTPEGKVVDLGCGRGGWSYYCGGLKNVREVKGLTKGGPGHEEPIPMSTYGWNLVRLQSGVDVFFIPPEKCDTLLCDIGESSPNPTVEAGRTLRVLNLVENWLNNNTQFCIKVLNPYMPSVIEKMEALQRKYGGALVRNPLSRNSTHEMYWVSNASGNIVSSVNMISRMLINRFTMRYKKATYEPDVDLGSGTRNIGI

SMILES | Ki (DENV NS5) [µM] | inhibition of CHIKV nsP1 guanylation activity (CHIKV nsP1 [1]) | Ki (CHIKV nsP1 [2]) [µM] | Sindbis virus replication in vitro (Sindbis virus) | Ca(2+) uptake of P2X7 receptor [3] | CHIKV replication in BHK cells (CHIKV (strain OPY1)) | EC50 (CHIKV; Huh-7, 24 h) [µM] | EC50 (CHIKV; Huh-7, 48 h) [µM] | EC50 (Sindbis virus; Sindbis virus, BHK, 48 h, read-out: EC50 Sindbis virus growth) [µM] | CC50 at 24 h (Cytotoxicity assay [4]; hamster) [µM] | CC50 at 48 h (Cytotoxicity assay [4]; hamster) [µM] | CC50 (Cytotoxicity assay [4]; hamster and human) [µM] | average selectivity index (CHIKV (strain OPY1); BHK and Huh 7 cells, 24 and 48 hours) | EC50 (CHIKV (strain OPY1); 24 h) [µM] | EC50 (CHIKV (strain OPY1); 48 h) [µM] | more active against CHIKV nsP1 than Dengue NS5 (selectivity) (CHIKV nsP1 [2]) [X] | CC50 at 24 h (Cytotoxicity assay [5]) [µM] | CC50 at 48 h (Cytotoxicity assay [5]) [µM] | absorption in the human intestine [6]
CCc1oc2ccccc2c1C(=O)c1cc(Br)c(O)c(Br)c1 [benzbromarone, Benzbromarone, reference compound] | 9 ± 0.7 | only showed inhibitory activity at high µM concentrations | 13 ± 0.9 |  |  |  |  |  |  |  |  |  |  |  |  |  |  |  | 
CC(C)=CCCC1(C)C=Cc2c(O)c3c(c(CC=C(C)C)c2O1)OC12C(=CCCC1C(C)(C)O[C@@]2(C/C=C(\C)C(=O)O)C(=O)O)C3=O (some centres unmarked) [garcinolic acid] | 6.9 ± 0.4 | inhibited CHIKV nsP1 guanlylation activity in a dose dependent manner | 14.5 ± 4.9 | did not markedly decrease Sindbis virus replication in vitro | increase Ca(2+) uptake of the human adenosine-triphosphategated P2X7 receptor | Neither pyrantel pamoate nor garcinolic acid were able to reduce CHIKV replication in BHK cells |  |  |  |  |  |  |  |  |  |  |  |  | 
CCCCCc1c2c(cc(O)c1C(=O)O)OC(=O)c1c(cc(OC)cc1C(=O)CCCC)O2 [lobaric acid] | 43.8 ± 7 | inhibited CHIKV nsP1 guanlylation activity in a dose dependent manner | 7 ± 0.6 |  |  | inhibited viral replication efficiently after 48 hours | 16.3 ± 1.2 | 5.3 ± 0.4 | 5.9 | 76.3 ± 2.1 | 53.8 ± 8.1 | 50 to 76 | ~7 | 9.9 ± 2.6 | 8.9 ± 1.3 | ~5 | 60.5 ± 3.8 | 50 ± 1.3 | 
CN1CCCN=C1/C=C/c1cccs1 [pyrantel pamoate, reference compound] | 38 ± 1.5 | inhibited CHIKV nsP1 guanlylation activity in a dose dependent manner | 5 ± 0.3 | did not markedly decrease Sindbis virus replication in vitro |  | Neither pyrantel pamoate nor garcinolic acid were able to reduce CHIKV replication in BHK cells |  |  |  |  |  |  |  |  |  | ~5 |  |  | poorly absorbed in the human intestine
